According to US4921528A, “Substituted azolylmethyl-cyclopropyl-carbinol derivatives” (Bayer Aktiengesellschaft, priority 1984, dated 1990):

Tests used:
Type in all cases: in vivo
Venturia inaequalis = assay: Venturia test (apple)/protective; conditions: young apple plants sprayed, then inoculated; evaluation 12 days after inoculation; compared with comparative substance (c)
Experimental: Venturia test (apple)/protective/ Solvent: 4.7 parts by weight of acetone Emulsifier: 0.3 parts by weight of alkylaryl polyglycol ether. To produce a suitable preparation of active compound, 1 part by weight of active compound is mixed with the stated amounts of solvent and emulsifier, and the concentrate is diluted with water to the desired concentration. To test for protective activity, young plants are sprayed with the preparation of active compound until dripping wet. After the spray coating has dried on, the plants are inoculated with an aqueous conidia suspension of the apple scab causative organism (Venturia inaequalis) and then remain in an incubation cabinet at 20° C. and 100% relative atmospheric humidity for 1 day. The plants are then placed in a greenhouse at 20° C. and a relative atmospheric humidity of about 70%. Evaluation is carried out 12 days after the inoculation.

Rice = assay: Inhibition of growth of rice; conditions: pots placed in active compound solution; length determined after development of the third leaf
Experimental: Inhibition of growth of rice
(§1) Solvent: 30 parts by weight of dimethylformamide
(§2) Emulsifier: 1 part by weight of polyoxyethylene sorbitan monolaurate.
To prepare a suitable preparation of active compound, 1 part by weight of active compound is mixed with the stated amounts of solvent and emulsifier, and the mixture is made up to the desired concentration with water.
Rice is grown in climatic chambers in small pots containing vermiculite, until the first leaf reaches a size of 1-2 cm. At this stage, the pots are placed in the prepared active compound solutions to a height corresponding to half the height of the pot.
After the development of the third leaf, the length of all plants is determined, and expressed as a percentage of the length of the control plants. 100% means growth corresponding to that of the control plants, values below 100% mean inhibition of growth, and values above 100% mean promotion of growth.

Cotton plants = assay: Inhibition of growth of cotton; conditions: sprayed until dripping wet; measured after 3 weeks; compared with prior-art compound (A)
Experimental: Inhibition of growth of cotton
as §1
Emulsifier: 1 part by weight of […] sorbitan monolaurate.
(§3) To produce a suitable preparation of active compound, 1 part by weight of active compound is mixed with the stated amounts of solvent and emulsifier and the mixture is made up to the desired concentration with water.
(§4) Cotton plants are grown in a greenhouse until the 5th secondary leaf has unfolded completely. In this stage, the plants are sprayed with the preparations of active compound until dripping wet. After 3 weeks, the additional growth of the plants is measured and the inhibition of growth in per cent of the additional growth of the control plants is calculated. 100% inhibition of growth means that growth has stopped and 0% denotes a growth corresponding to that of the control plants.

Barley plants = assay: Inhibition of growth of barley; conditions: sprayed until dripping wet; measured after 3 weeks; compared with prior-art compounds (A), (B), (C) and (D)
Experimental: Inhibition of growth of barley
as §1, §2, §3
as §4, with “Barley plants” for “Cotton plants”, “greenhouse to” for “greenhouse until”, “the 2-leaf stage.” for “the 5th secondary leaf has unfolded completely.”, “growth” for “growth of the plants”, “measured on all plants” for “measured”

Soya bean plants = assay: Inhibition of growth of soya beans; conditions: sprayed until dripping wet; measured after 3 weeks; compared with prior-art compound (D)
Experimental: Inhibition of growth of soya beans
as §1, §2, §3
Soya bean plants are grown in a greenhouse until the first secondary leaf has unfolded completely. In this stage, the plants are sprayed with the preparations of active compound until dripping wet. After 3 weeks, the additional growth is measured on all the plants and the inhibition of growth in per cent of the additional growth of the control plants is calculated. 100% inhibition of growth means that growth has stopped and 0% denotes a growth corresponding to that of the control plants.

Structure (SMILES) | protective activity against apple scab (Venturia inaequalis) (Venturia inaequalis) | inhibition of growth of rice (length of plants as percentage of control plants) (Rice) | inhibition of growth of cotton (per cent of additional growth of control plants) (Cotton plants) | inhibition of growth of barley (per cent of additional growth of control plants) (Barley plants) | inhibition of growth of soya beans (per cent of additional growth of control plants) (Soya bean plants)
CCSC1(C(O)(Cn2cncn2)c2ccc(Cl)cc2)CC1 (stereo not shown) [Compound I-1, 1-(4-chlorophenyl)-1-[1-(ethylthio)-1-cyclopropyl]-2-(1,2,4-triazol-1-yl)1-ethanol] | better activity than the known comparative substance (c) | pronounced inhibition of growth | – | – | –
CC[S+]([O-])C1(C(O)(Cn2cncn2)c2ccc(Cl)cc2)CC1 (stereo not shown) [Compound I-3, 1-(4-chlorophenyl)-1-[1-(ethylsulphinyl)-1-cyclopropyl]-2-(1,2,4-triazol-yl)1-ethanol] | – | pronounced inhibition of growth | more pronounced inhibition of growth than the compound (A) | more pronounced inhibition of growth than the compounds (A), (B), (C) and (D) | more pronounced inhibition of growth than the compound (D)
OC(Cn1cncn1)(c1ccc(Cl)cc1)C1(Oc2ccccc2)CC1 (stereo not shown) [Compound I-5] | – | pronounced inhibition of growth | more pronounced inhibition of growth than the compound (A) | more pronounced inhibition of growth than the compounds (A), (B), (C) and (D) | –
CCCCSC1(C(O)(Cn2cncn2)c2ccc(Cl)cc2)CC1 (stereo not shown) [Compound I-6] | – | pronounced inhibition of growth | – | – | –
